Source: publication PMC11903690 (Scientific Reports, 2025)

What was measured:
Test in all cases: microbe, parasite or virus in culture
Format in all cases: cell-based
[1] = test system: SARS-CoV-2 alpha (B.1.1.7); details: for EC50: Severe acute respiratory syndrome coronavirus 2; for Selectivity index: SARS-CoV-2α, HEK293TA cells
SARS-CoV-2gamma (P.1) = details: for EC50: Severe acute respiratory syndrome coronavirus 2; for Selectivity index: SARS-CoV-2γ, HEK293TA cells
[2] = test system: SARS-CoV-2 delta (B.1.617.2); details: for EC50: Severe acute respiratory syndrome coronavirus 2; for Selectivity index: SARS-CoV-2δ, HEK293TA cells

Structure (SMILES) | EC50 [1] [nM] | EC50 (SARS-CoV-2gamma (P.1)) [nM] | EC50 [2] [nM] | Selectivity index [1] | Selectivity index (SARS-CoV-2gamma (P.1)) | Selectivity index [2]
CCC(CC)COC(=O)[C@H](C)N[P@](=O)(OC[C@H]1O[C@@](C#N)(c2ccc3c(N)ncnn23)[C@H](O)[C@@H]1O)Oc1ccccc1 [Remdesivir] | < 78 | < 78 | < 78 | – | – | –
O=C(CCCCCCCCc1ccc(O)c(O)c1)c1c(O)cccc1O [Compound 1, Malabaricone C] | 1900 | 1700 | 1900 | 2.6 | 3.6 | 3.4
CC(C)C(=O)OC[C@H]1O[C@@H](n2ccc(NO)nc2=O)[C@H](O)[C@@H]1O [Molnupiravir] | 400 | 520 | 450 | 14.7 | 13 | 13
